The assay addresses human orexin-2 receptor (Homo sapiens (Human), UniProt O43614). Description: Human orexin 2 receptor radioligand binding ([3H]-EMPA competition). The settings on record: HEK293 cells stably expressing human orexin-2 receptor; [3H]-EMPA 5 nM final; apparent Ki=IC50/(1+C/Kd), Kd=2 nM; read-out: OR 2 Ki.
human orexin-2 receptor, sequence (O43614 whole entry): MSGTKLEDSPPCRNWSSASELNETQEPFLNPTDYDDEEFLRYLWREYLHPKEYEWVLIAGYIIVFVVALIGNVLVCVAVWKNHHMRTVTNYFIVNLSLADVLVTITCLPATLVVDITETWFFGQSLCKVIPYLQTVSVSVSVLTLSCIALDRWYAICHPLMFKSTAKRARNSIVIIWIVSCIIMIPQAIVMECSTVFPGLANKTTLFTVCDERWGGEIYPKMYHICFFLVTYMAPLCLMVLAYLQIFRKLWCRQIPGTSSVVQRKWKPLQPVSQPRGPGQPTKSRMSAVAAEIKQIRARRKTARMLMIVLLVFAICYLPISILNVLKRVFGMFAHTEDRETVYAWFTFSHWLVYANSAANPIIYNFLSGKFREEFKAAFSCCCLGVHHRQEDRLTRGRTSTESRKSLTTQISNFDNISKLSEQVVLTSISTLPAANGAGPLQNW
Take `COc1ccc(C(=O)N2CC3CN(c4nc5ccc(C)cc5s4)CC3C2)c(OC)c1` (stereo not drawn) [Example 172, 2-{5-[(2,4-Dimethoxyphenyl)carbonyl]hexahydropyrrolo[3,4-c]pyrrol-2(1H)-yl}-6-methyl-1,3-benzothiazole]: the Ki was determined as 450 nM. Under `Cc1cccc(N2CC3CN(C(=O)c4ccccc4-c4ccccc4)CC3C2)n1` (stereo not drawn) [Example 173, 2-(Biphenyl-2-ylcarbonyl)-5-(6-methylpyridin-2-yl)octahydropyrrolo[3,4-c]pyrrole] stands 950 nM; under `Cc1ccnc(N2CC3CN(C(=O)c4ccccc4-c4ccccc4)CC3C2)n1` (stereo not drawn) [Example 174, 2-(Biphenyl-2-ylcarbonyl)-5-(4-methylpyrimidin-2-yl)octahydropyrrolo[3,4-c]pyrrole], 729 nM; under `O=C(c1ccccc1-c1ccccc1)N1CC2CN(c3ccc4ccccc4n3)CC2C1` (stereo not drawn) [Example 175, 2-[5-(Biphenyl-2-ylcarbonyl)hexahydropyrrolo[3,4-c]pyrrol-2(1H)-yl]quinoline], 669 nM. Under `O=C(c1ccccc1-c1ccccc1)N1CC2CN(c3nc4ccc(F)cc4s3)CC2C1` (stereo not drawn) [Example 176, 2-[5-(Biphenyl-2-ylcarbonyl)hexahydropyrrolo[3,4-c]pyrrol-2(1H)-yl]-6-fluoro-1,3-benzothiazole] stands 236 nM.

In the case of `COc1ccnc(N2CC3CN(C(=O)c4ccccc4-c4ccccc4)CC3C2)n1` (stereo not drawn) [Example 177, 2-(Biphenyl-2-ylcarbonyl)-5-(4-methoxypyrimidin-2-yl)octahydropyrrolo[3,4-c]pyrrole], the Ki is 339 nM. On to `Cc1cc(N2CC3CN(C(=O)c4ccccc4-c4ccccc4)CC3C2)nc2ccccc12` (stereo not drawn) [Example 178, 2-[5-(Biphenyl-2-ylcarbonyl)hexahydropyrrolo[3,4-c]pyrrol-2(1H)-yl]-4-methylquinoline], for which the Ki was found to be 123 nM. Under `COc1ccc(C(=O)N2CC3CN(c4nccc(OC)n4)CC3C2)c(OC)c1` (stereo not drawn) [Example 179, (2,4-Dimethoxy-phenyl)-[5-(4-methoxy-pyrimidin-2-yl)-hexahydro-pyrrolo[3,4-c]pyrrol-2-yl]-methanone] stands 9000 nM.

Turning to `COc1ccccc1C(=O)N1CC2CN(c3nc4ccccc4o3)CC2C1` (stereo not drawn) [Example 180, (5-Benzooxazol-2-yl-hexahydro-pyrrolo[3,4-c]pyrrol-2-yl)-(2-methoxy-phenyl)-methanone], the Ki is 2300 nM. Under `O=C(c1ccccc1-c1cccnc1)N1CC2CN(c3cnc4ccccc4n3)CC2C1` (stereo not drawn) [Example 181, (2-Pyridin-3-yl-phenyl)-(5-quinoxalin-2-yl-hexahydro-pyrrolo[3,4-c]pyrrol-2-yl)-methanone] stands 3560 nM; under `Cc1cc(C)nc(N2CC3CN(C(=O)c4ccccc4-c4ncc[nH]4)CC3C2)n1` (stereo not drawn) [Example 182, [5-(4,6-Dimethyl-pyrimidin-2-yl)-hexahydro-pyrrolo[3,4-c]pyrrol-2-yl]-[2-(1H-imidazol-2-yl)-phenyl]-methanone], 2200 nM. Under `COc1ccc(C(=O)N2CC3CN(c4nc5ccccc5o4)CC3C2)c(OC)c1` (stereo not drawn) [Example 183, (5-Benzooxazol-2-yl-hexahydro-pyrrolo[3,4-c]pyrrol-2-yl)-(2,4-dimethoxy-phenyl)-methanone] stands 5000 nM. Under `O=C(c1ccccc1-c1ccccc1)N1CC2CN(c3nc4ccccc4o3)CC2C1` (stereo not drawn) [Example 184, (5-Benzooxazol-2-yl-hexahydro-pyrrolo[3,4-c]pyrrol-2-yl)-biphenyl-2-yl-methanone] stands 1040 nM; under `COc1ccc(C(=O)N2CC3CN(c4cccc(C)n4)CC3C2)c(OC)c1` (stereo not drawn) [Example 185, (2,4-Dimethoxy-phenyl)-[5-(6-methyl-pyridin-2-yl)-hexahydro-pyrrolo[3,4-c]pyrrol-2-yl]-methanone], 9000 nM; under `COc1ccc(C(=O)N2CC3CN(c4nccc(C)n4)CC3C2)c(OC)c1` (stereo not drawn) [Example 186, (2,4-Dimethoxy-phenyl)-[5-(4-methyl-pyrimidin-2-yl)-hexahydro-pyrrolo[3,4-c]pyrrol-2-yl]-methanone], 10000 nM. In the case of `COc1ccc2nc(N3CC4CN(C(=O)c5ccccc5-c5ccccc5)CC4C3)sc2c1` (stereo not drawn) [Example 187, Biphenyl-2-yl-[5-(6-methoxy-benzothiazol-2-yl)-hexahydro-pyrrolo[3,4-c]pyrrol-2-yl]-methanone], the Ki was 2280 nM. Regarding `Cc1ccc2nc(N3CC4CN(C(=O)c5ccccc5-c5ccccc5)CC4C3)sc2c1` (stereo not drawn) [Example 188, Biphenyl-2-yl-[5-(6-methyl-benzothiazol-2-yl)-hexahydro-pyrrolo[3,4-c]pyrrol-2-yl]-methanone], the Ki amounted to 2610 nM. As for `COc1cccc(OC)c1C(=O)N1CC2CN(c3nc4ccc(Cl)cc4s3)CC2C1` (stereo not drawn) [Example 189, [5-(6-Chloro-benzothiazol-2-yl)-hexahydro-pyrrolo[3,4-c]pyrrol-2-yl]-(2,6-dimethoxy-phenyl)-methanone], the Ki came to 1600 nM. Take `O=C(c1ccccc1-c1ccccc1)N1CC2CN(c3nc4ccc(Cl)cc4s3)CC2C1` (stereo not drawn) [Example 190, Biphenyl-2-yl-[5-(6-chloro-benzothiazol-2-yl)-hexahydro-pyrrolo[3,4-c]pyrrol-2-yl]-methanone]: the Ki was found to be 1300 nM. The same measure for `COc1ccc(C(=O)N2CC3CN(c4cnc5ccccc5n4)CC3C2)c(OC)c1` (stereo not drawn) [Example 191, (2,4-Dimethoxy-phenyl)-(5-quinoxalin-2-yl-hexahydro-pyrrolo[3,4-c]pyrrol-2-yl)-methanone]: 2660 nM; for `COc1cccc(OC)c1C(=O)N1CC2CN(c3nc4ccccc4o3)CC2C1` (stereo not drawn) [Example 192, (5-Benzooxazol-2-yl-hexahydro-pyrrolo[3,4-c]pyrrol-2-yl)-(2,6-dimethoxy-phenyl)-methanone]: 1020 nM; for `Cc1ccc(-c2ccccc2C(=O)N2CC3CN(c4cnc5ccccc5n4)CC3C2)cc1` (stereo not drawn) [Example 193, (4′-Methyl-biphenyl-2-yl)-(5-quinoxalin-2-yl-hexahydro-pyrrolo[3,4-c]pyrrol-2-yl)-methanone]: 1160 nM. Turning to `O=C(c1ccccc1-c1ccc(C(F)(F)F)cc1)N1CC2CN(c3cnc4ccccc4n3)CC2C1` (stereo not drawn) [Example 194, (5-Quinoxalin-2-yl-hexahydro-pyrrolo[3,4-c]pyrrol-2-yl)-(4′-trifluoromethyl-biphenyl-2-yl)-methanone], the Ki was 10000 nM. Under `Cc1ccc(-c2ccccc2C(=O)N2CC3CN(c4nccc(-c5ccccc5)n4)CC3C2)cc1` (stereo not drawn) [Example 195, (4′-Methyl-biphenyl-2-yl)-[5-(4-phenyl-pyrimidin-2-yl)-hexahydro-pyrrolo[3,4-c]pyrrol-2-yl]-methanone] stands 1100 nM; under `O=C(c1ccccc1-c1ccc(C(F)(F)F)cc1)N1CC2CN(c3nccc(-c4ccccc4)n3)CC2C1` (stereo not drawn) [Example 196, [5-(4-Phenyl-pyrimidin-2-yl)-hexahydro-pyrrolo[3,4-c]pyrrol-2-yl]-(4′-trifluoromethyl-biphenyl-2-yl)-methanone], 10000 nM; under `COc1ccc(C(=O)N2CC3CN(c4cnc5ccccc5n4)CC3C2)c(C)c1` (stereo not drawn) [Example 197, (4-Methoxy-2-methyl-phenyl)-(5-quinoxalin-2-yl-hexahydro-pyrrolo[3,4-c]pyrrol-2-yl)-methanone], 1160 nM. The same measure for `O=C(c1ccccc1-c1cccc(Cl)c1)N1CC2CN(c3nccc(-c4ccccc4)n3)CC2C1` (stereo not drawn) [Example 198, (3′-Chloro-biphenyl-2-yl)-[5-(4-phenyl-pyrimidin-2-yl)-hexahydro-pyrrolo[3,4-c]pyrrol-2-yl]-methanone]: 1310 nM; for `COc1ccnc(N2CC3CN(C(=O)c4ccccc4OC)CC3C2)n1` (stereo not drawn) [Example 199, (2-Methoxy-phenyl)-[5-(4-methoxy-pyrimidin-2-yl)-hexahydro-pyrrolo[3,4-c]pyrrol-2-yl]-methanone]: 3780 nM.

`COc1ccccc1C(=O)N1CC2CN(c3nc(C)cc(C)n3)CC2C1` (stereo not drawn) [Example 201, [5-(4,6-Dimethyl-pyrimidin-2-yl)-hexahydro-pyrrolo[3,4-c]pyrrol-2-yl]-(2-methoxy-phenyl)-methanone]: the Ki is 1370 nM.

For the compound `Cc1cc(C)nc(N2CC3CN(C(=O)c4ccccc4C#N)CC3C2)n1` (stereo not drawn) [Example 202, 2-[5-(4,6-Dimethyl-pyrimidin-2-yl)-hexahydro-pyrrolo[3,4-c]pyrrole-2-carbonyl]-benzonitrile], the Ki stood at 5000 nM. As to `Cc1cc(C)nc(N2CC3CN(C(=O)c4cnnc5ccccc45)CC3C2)n1` (stereo not drawn) [Example 203, Cinnolin-4-yl-[5-(4,6-dimethyl-pyrimidin-2-yl)-hexahydro-pyrrolo[3,4-c]pyrrol-2-yl]-methanone], the Ki amounted to 5000 nM. The same measure for `Cc1cc(N2CC3CN(C(=O)c4cc(F)ccc4-c4ncccn4)CC3C2)nc(C(F)(F)F)n1` (stereo not drawn) [Example 204, (5-Fluoro-2-pyrimidin-2-yl-phenyl)-[5-(6-methyl-2-trifluoromethyl-pyrimidin-4-yl)-hexahydro-pyrrolo[3,4-c]pyrrol-2-yl]-methanone]: 50 nM; for `Cc1cc(C)nc(N2CC3CN(C(=O)c4ccccc4-n4ccnn4)CC3C2)n1` (stereo not drawn) [Example 205, [5-(4,6-Dimethyl-pyrimidin-2-yl)-hexahydro-pyrrolo[3,4-c]pyrrol-2-yl]-(2-[1,2,3]triazol-1-yl-phenyl)-methanone]: 3190 nM; for `COc1cc(OC)nc(N2CC3CN(C(=O)c4ncccc4-c4ccccc4)CC3C2)n1` (stereo not drawn) [Example 207, [5-(4,6-Dimethoxy-pyrimidin-2-yl)-hexahydro-pyrrolo[3,4-c]pyrrol-2-yl]-(3-phenyl-pyridin-2-yl)-methanone]: 9000 nM. The same measure for `Cc1cc(C)nc(N2CC3CN(C(=O)c4ncccc4-c4ccccc4)CC3C2)n1` (stereo not drawn) [Example 208, [5-(4,6-Dimethyl-pyrimidin-2-yl)-hexahydro-pyrrolo[3,4-c]pyrrol-2-yl]-(3-phenyl-pyridin-2-yl)-methanone]: 2100 nM. The same measure for `CCCc1nc(C)cc(N2CC3CN(C(=O)c4ccccc4-n4nccn4)CC3C2)n1` (stereo not drawn) [Example 209, [5-(6-Methyl-2-propyl-pyrimidin-4-yl)-hexahydro-pyrrolo[3,4-c]pyrrol-2-yl]-(2-[1,2,3]triazol-2-yl-phenyl)-methanone]: 9000 nM.

The record behind these values is patent US8653263B2 (Janssen Pharmaceutica, priority 2009, dated 2014).
